What was measured:
Plasmin = target: T1, Plasmin (Homo sapiens, UniProt P00747); assay: Inactivation of plasmin (preincubation method); type: biochemical; details: pH 7.5, 25°C; preincubation method; NI=no inhibition
T1 construct: No; X′; α-CT; HLE; LMW-uPA; Plasmin; purchased Biogenic
Protocol: (§1) Bovine α-CT and LMW-uPA (MW=33 000 Da) were purchased from Sigma, HMW-uPA (MW=54 000 Da) from Choay, trypsin (TRY) and THR from Boehringer-Indelheim (Germany), and MMP-2 and MMP-9 from Calbiochem. Human leucocyte elastase and PM were from Elastase Products Co. and Biogenic, respectively. Except for THR, HMW-uPA, MMP-2 and MMP-9, enzyme concentrations were determined by active-site titrations using the appropriate titrant ([Bender et al, 1966]; [Chase and Shaw, 1970]; [Powers and Gupton, 1977]). […]
(§2) The kinetic parameters for the inhibition were determined either by the preincubation method for LMW-uPA and PM (small aliquots of the reaction mixture were withdrawn at intervals of time and the remaining activity determined), or by the progress curve method (HLE) when the inhibition was too fast to be measured accurately using the preincubation method. […]
(§3) At low inhibitor concentrations, the ratio ki/KI was obtained as kobs/[I]0. […] In the progress curve method, the substrate competes with the inhibitor and the kinetic parameters are determined as previously described ([Doucet et al, 1999]). […]

α-CT = details: pH 7.5, 25°C; ref Pochet et al (2000); cited from earlier work
HLE [1] = target: T2, HLE (Homo sapiens, UniProt P08246); details: pH 8.0, 25°C; ref Pochet et al (2000); cited from earlier work
T2 construct: purchased Elastase Products Co
T2 sequence (P08246 30-267): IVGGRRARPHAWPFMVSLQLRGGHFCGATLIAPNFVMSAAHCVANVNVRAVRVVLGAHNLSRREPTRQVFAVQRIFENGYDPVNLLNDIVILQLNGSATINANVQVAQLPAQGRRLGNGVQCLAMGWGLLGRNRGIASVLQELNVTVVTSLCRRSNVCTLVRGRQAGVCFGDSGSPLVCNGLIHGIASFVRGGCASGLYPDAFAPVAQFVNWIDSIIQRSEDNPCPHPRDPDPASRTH

HLE [2] = target: T2, HLE; assay: Inactivation of human leucocyte elastase (progress curve method); type: biochemical; details: pH 8.0, 25°C, read-out: ki/KI or kobs/[I], HLE
Protocol: as §1, §2, §3

MDA-MB231 cells = assay: Tumorigenicity of MDA-MB231 cells injected s.c. with matrigel in nude mice; type: in vivo; details: 30 mg kg^−1 i.p. three times per week
Protocol: Matrigel (basement membrane proteins) was extracted from the mouse Engelbreth–Holm–Swarm (EHS) tumour as previously described ([Noël et al, 1991]). Tumoral cells were detached by trypsinisation, harvested by centrifugation, resuspended in 0.25 ml of serum-free medium and mixed with an equal volume of cold matrigel (10 mg ml^−1). The suspension (1 × 10^6 cells injection site^−1) was injected subcutaneously (s.c.) on both body flanks of 6–8-week-old female athymic nude mice (n=6; nu/nu Swiss mice from Iffa credo, L'Arbresle, France). The coumarin derivatives in PBS were injected intraperitoneally (30 mg kg^−1) three times per week during the whole assay.
The tumorigenicity defines the capacity of cells to induce tumour formation. The larger (a) and smaller (b) diameters of the apparent tumour were measured and served for tumour volume calculation according to a × b^2 × 0.4 ([Attia and Weiss, 1966]). Injected mice were examined weekly. Tumours presenting a volume higher than 80 mm^3 and which maintained a progressive growth were taken into account ([Noël et al, 1992]). Results are expressed as the mean (±s.e.m.) of the tumour volumes.

T1 sequence (P00747 581-810 limits assumed, species assumed): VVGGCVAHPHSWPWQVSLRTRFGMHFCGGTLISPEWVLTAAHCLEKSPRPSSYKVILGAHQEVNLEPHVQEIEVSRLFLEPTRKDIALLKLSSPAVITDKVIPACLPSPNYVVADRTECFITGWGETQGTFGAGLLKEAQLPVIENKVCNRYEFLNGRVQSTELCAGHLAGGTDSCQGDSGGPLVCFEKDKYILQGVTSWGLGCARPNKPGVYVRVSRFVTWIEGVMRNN
T1 sequence (P00747 97-580 partner limits assumed, species assumed): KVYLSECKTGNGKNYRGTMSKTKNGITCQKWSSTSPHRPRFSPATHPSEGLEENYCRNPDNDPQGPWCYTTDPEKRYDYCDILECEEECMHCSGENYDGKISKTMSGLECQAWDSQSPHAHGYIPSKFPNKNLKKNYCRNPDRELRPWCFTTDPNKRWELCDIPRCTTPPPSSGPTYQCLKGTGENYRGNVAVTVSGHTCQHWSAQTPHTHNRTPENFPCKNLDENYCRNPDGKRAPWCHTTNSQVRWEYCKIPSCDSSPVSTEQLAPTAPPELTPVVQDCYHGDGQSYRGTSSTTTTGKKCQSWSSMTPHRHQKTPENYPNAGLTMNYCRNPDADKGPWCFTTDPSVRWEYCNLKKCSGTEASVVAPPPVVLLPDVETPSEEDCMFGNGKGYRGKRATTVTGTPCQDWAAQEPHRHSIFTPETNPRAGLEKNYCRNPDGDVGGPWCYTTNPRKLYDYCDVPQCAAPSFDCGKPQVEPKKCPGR

CC(=O)OCc1ccc2oc(=O)c(C(=O)Oc3cccc(Cl)c3)cc2c1 [compound 4, 3-chlorophenyl 6-acetoxymethyl-2-oxo-2H-1-benzopyran-3-carboxylate]
ki/KI or kobs/[I], Plasmin (Plasmin): not affected | ki/KI or kobs/[I], α-CT (α-CT): 20000^a M^−1 s^−1 | ki/KI or kobs/[I], HLE (HLE [1]): 1440^a M^−1 s^−1

CC(=O)OCc1ccc2oc(=O)c(C(=O)Oc3cccc(Br)c3)cc2c1 [compound 7, 3-bromophenyl 6-acetoxy-methyl-2-oxo-2H-1-benzopyran-3-carboxylate]
kinact/KI (HLE [2]): 2190 M⁻¹ s⁻¹ | effect on tumour incidence, MDA-MB231 (MDA-MB231 cells): did not affect tumour incidence | effect on tumour growth, MDA-MB231 (MDA-MB231 cells; ANOVA, P<0.05): reduced significantly tumour growth | melting point: 141 to 142 °C

Reference: PMC2376372, “3-Bromophenyl 6-acetoxymethyl-2-oxo-2H-1-benzopyran-3-carboxylate inhibits cancer cell invasion in vitro and tumour growth in vivo” (British Journal of Cancer, 2003)
